Literature values as cited in patent US10590413B2, “Chiral control” (WAVE LIFE SCIENCES LTD., priority 2012, dated 2020).
Read-outs that look alike come from different tables or passages of the source. [5mC] = 5-methylcytosine

System: Mouse B Cells
Settings: mean and std. dev. of at least 3 experiments, compared to wells with no added ODN, cited from earlier work

| Substance | Stimulation Index, 3H Uridine (US 6,239,116 Table 1) | Stimulation Index, IgM Production (US 6,239,116 Table 1) | Stimulation Index, 3H Uridine |
| --- | --- | --- | --- |
| 1b (DNA GCTAGACGTTAGCGT; Z modified cytosine, further chemistry not given here) [Oligonucleotide 1b] | 1.2 ± 0.1 | 1.8 ± 0.0 | 1.2 ± 0.1 |
| 1c (DNA GCTAGACGTTAGCGT; chemistry not fully specified) [Oligonucleotide 1c] | 10.3 ± 4.4 | 9.5 ± 1.8 | 10.3 ± 4.4 |
| 1d (DNA GCATGACGTTGAGCT; DNA, backbone not given here; further chemistry not fully specified) [Oligonucleotide 1d] | 13.0 ± 2.3 | 18.3 ± 7.5 | 13.0 ± 2.3 |
| 2c (DNA ATCGACTCTCGAGCGTTCTC; chemistry not fully specified) [Oligonucleotide 2c] | 3.1 ± 0.6 | 7.3 ± 1.4 | 3.1 ± 0.6 |
| 2d (DNA ATCGACTCTCGAGCGTTCTC; DNA, [5mC] at 18, backbone not given here) [Oligonucleotide 2d] | 7.4 ± 1.4 | 27.7 ± 5.4 | 7.4 ± 1.4 |
| 3D (DNA GAGAACGCTGGACCTTCCAT; chemistry not fully specified) [Oligonucleotide 3D] | 4.9 ± 0.5 | 19.9 ± 3.6 | 4.9 ± 0.5 |
| 3Db (DNA GAGAACGCTCGACCTTCGAT; chemistry not fully specified) [Oligonucleotide 3Db] | 10.1 ± 2.8 | 25.4 ± 0.8 | 10.1 ± 2.8 |
| 3Dc (DNA GAGCAAGCTGGACCTTCCAT; chemistry not fully specified) [Oligonucleotide 3Dc] | 1.0 ± 0.1 | 1.2 ± 0.5 | 1.0 ± 0.1 |
| 3Df (DNA GAGAACGATGGACCTTCCAT; chemistry not fully specified) [Oligonucleotide 3Df] | 1.6 ± 0.1 | 7.7 ± 0.4 | 1.6 ± 0.1 |
| 3Dg (DNA GAGAACGCTCCAGCACTGAT; chemistry not fully specified) [Oligonucleotide 3Dg] | 6.1 ± 1.5 | 18.6 ± 1.5 | 6.1 ± 1.5 |
| 3Ma (DNA TCCATGCTGGTCCTGATGCT; chemistry not fully specified) [Oligonucleotide 3Ma] | 0.9 ± 0.1 | 1.8 ± 0.5 | 0.9 ± 0.1 |
| 3Mc (DNA TCCATGTCGGTCCTGATGCT; Z modified cytosine, further chemistry not given here) [Oligonucleotide 3Mc] | 5.4 ± 1.5 | 8.5 ± 2.6 | 5.4 ± 1.5 |
| 3Md (DNA TCCATGACGTTCCTGATGCT; chemistry not given here) [Oligonucleotide 3Md] | 17.2 ± 9.4 |  | 17.2 ± 9.4 |
| 3Me (DNA TCCATGTCGGTCCTGCTGAT; chemistry not given here) [Oligonucleotide 3Me] | 3.6 ± 0.2 | 14.2 ± 5.2 | 3.6 ± 0.2 |
| 4b (DNA TCAGCGCT; chemistry not fully specified) [Oligonucleotide 4b] | 4.5 ± 0.2 | 9.6 ± 3.4 | 4.5 ± 0.2 |
| 4c (DNA TCATCGAT; chemistry not given here) [Oligonucleotide 4c] | 2.7 ± 1.0 |  | 2.7 ± 1.0 |
